Data reported in PubChem BioAssay (NCI).
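Assay format: 96-well plates, 48-hour exposure. GI50 marks 50% less growth. TGI: concentration producing complete growth inhibition.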

What was measured:
Experiment in all cases: NCI-60 cell line screen, 48 h
SK-MEL-28 melanoma = system: SK-MEL-28 melanoma
MOLT-4 leukemia = system: MOLT-4 leukemia
RPMI-8226 leukemia = system: RPMI-8226 leukemia
NCI/ADR-RES ovarian = system: NCI/ADR-RES ovarian
SK-OV-3 ovarian = system: SK-OV-3 ovarian
HS 578T breast = system: HS 578T breast
MCF7 breast = system: MCF7 breast
CCRF-CEM leukemia = system: CCRF-CEM leukemia
UO-31 renal = system: UO-31 renal
OVCAR-4 ovarian = system: OVCAR-4 ovarian
LOX IMVI melanoma = system: LOX IMVI melanoma
SN12C renal = system: SN12C renal
SR leukemia = system: SR leukemia
A549 NSCLC = system: A549 NSCLC
MDA-MB-435 = system: MDA-MB-435
HL-60(TB) leukemia = system: HL-60(TB) leukemia
SF-268 CNS = system: SF-268 CNS
NCI-H522 lung = system: NCI-H522 lung
BT-549 breast = system: BT-549 breast
U251 CNS = system: U251 CNS
786-0 renal = system: 786-0 renal
HCT-15 colon = system: HCT-15 colon
M14 melanoma = system: M14 melanoma
HCC-2998 colon = system: HCC-2998 colon
SW-620 colon = system: SW-620 colon
SNB-19 CNS = system: SNB-19 CNS
KM12 colon = system: KM12 colon
HCT-116 colon = system: HCT-116 colon
NCI-H23 lung = system: NCI-H23 lung
K-562 leukemia = system: K-562 leukemia
COLO 205 colon = system: COLO 205 colon
HOP-62 NSCLC = system: HOP-62 NSCLC
OVCAR-5 ovarian = system: OVCAR-5 ovarian
ACHN renal = system: ACHN renal
PC-3 prostate = system: PC-3 prostate
UACC-257 melanoma = system: UACC-257 melanoma
NCI-H460 lung = system: NCI-H460 lung
SK-MEL-2 melanoma = system: SK-MEL-2 melanoma
OVCAR-8 ovarian = system: OVCAR-8 ovarian
TK-10 renal = system: TK-10 renal
MDA-MB-231 breast = system: MDA-MB-231 breast
EKVX NSCLC = system: EKVX NSCLC
SNB-75 CNS = system: SNB-75 CNS
T-47D breast = system: T-47D breast
HT29 colon = system: HT29 colon
A498 renal = system: A498 renal
UACC-62 melanoma = system: UACC-62 melanoma
MALME-3M melanoma = system: MALME-3M melanoma
HOP-92 NSCLC = system: HOP-92 NSCLC
SF-295 CNS = system: SF-295 CNS
CAKI-1 renal = system: CAKI-1 renal
OVCAR-3 ovarian = system: OVCAR-3 ovarian
RXF 393 renal = system: RXF 393 renal
SF-539 CNS = system: SF-539 CNS
NCI-H226 lung = system: NCI-H226 lung
IGROV1 ovarian = system: IGROV1 ovarian
DU-145 prostate = system: DU-145 prostate
SK-MEL-5 melanoma = system: SK-MEL-5 melanoma
MDA-N = system: MDA-N

Compound: O=C(Nc1cccc(O)c1)c1ccc(NC2=C(Cl)C(=O)N(Cc3ccc(Cl)cc3Cl)C2=O)cc1
- GI50 (SK-MEL-28 melanoma): 3.41 µM
- TGI (SK-MEL-28 melanoma): 10.1 µM
- GI50 (MOLT-4 leukemia): 0.383 µM
- TGI (MOLT-4 leukemia): 2.17 µM
- GI50 (RPMI-8226 leukemia): 0.749 µM
- TGI (RPMI-8226 leukemia): 2.52 µM
- GI50 (NCI/ADR-RES ovarian): 21.6 µM
- TGI (NCI/ADR-RES ovarian): 48.1 µM
- GI50 (SK-OV-3 ovarian): 4.6 µM
- TGI (SK-OV-3 ovarian): 14.7 µM
- GI50 (HS 578T breast): 3.24 µM
- TGI (HS 578T breast): 11.9 µM
- GI50 (MCF7 breast): 1.83 µM
- TGI (MCF7 breast): 4.29 µM
- GI50 (CCRF-CEM leukemia): 0.244 µM
- TGI (CCRF-CEM leukemia): 0.95 µM
- GI50 (UO-31 renal): 1.91 µM
- TGI (UO-31 renal): 3.75 µM
- GI50 (OVCAR-4 ovarian): 5.43 µM
- TGI (OVCAR-4 ovarian): 12.7 µM
- GI50 (LOX IMVI melanoma): 1.62 µM
- TGI (LOX IMVI melanoma): 3.16 µM
- GI50 (SN12C renal): 1.99 µM
- TGI (SN12C renal): 4.09 µM
- GI50 (SR leukemia): 0.168 µM
- TGI (SR leukemia): 0.411 µM
- GI50 (A549 NSCLC): 15.7 µM
- TGI (A549 NSCLC): 31.7 µM
- GI50 (MDA-MB-435): 1.89 µM
- TGI (MDA-MB-435): 3.63 µM
- TGI (HL-60(TB) leukemia): 3.75 µM
- GI50 (SF-268 CNS): 2.01 µM
- TGI (SF-268 CNS): 4.75 µM
- GI50 (NCI-H522 lung): 1.94 µM
- TGI (NCI-H522 lung): 4.24 µM
- GI50 (BT-549 breast): 5.7 µM
- TGI (BT-549 breast): 12.2 µM
- GI50 (U251 CNS): 1.76 µM
- TGI (U251 CNS): 3.23 µM
- GI50 (786-0 renal): 7.2 µM
- TGI (786-0 renal): > 57 µM
- GI50 (HCT-15 colon): 2.51 µM
- TGI (HCT-15 colon): 6.13 µM
- GI50 (M14 melanoma): 8.29 µM
- TGI (M14 melanoma): > 55.9 µM
- GI50 (HCC-2998 colon): 18.9 µM
- TGI (HCC-2998 colon): 33.8 µM
- GI50 (SW-620 colon): 2.21 µM
- TGI (SW-620 colon): 6.42 µM
- GI50 (SNB-19 CNS): 2.69 µM
- TGI (SNB-19 CNS): 7.68 µM
- GI50 (KM12 colon): 1.84 µM
- TGI (KM12 colon): 3.66 µM
- GI50 (HCT-116 colon): 6.89 µM
- TGI (HCT-116 colon): > 56.4 µM
- GI50 (NCI-H23 lung): 19.6 µM
- TGI (NCI-H23 lung): 36.1 µM
- GI50 (K-562 leukemia): 1.08 µM
- TGI (K-562 leukemia): 3.96 µM
- GI50 (COLO 205 colon): 1.9 µM
- TGI (COLO 205 colon): 4.18 µM
- GI50 (HOP-62 NSCLC): 8.44 µM
- TGI (HOP-62 NSCLC): > 58.5 µM
- GI50 (OVCAR-5 ovarian): 18.8 µM
- TGI (OVCAR-5 ovarian): 34.1 µM
- GI50 (ACHN renal): 1.75 µM
- TGI (ACHN renal): 3.21 µM
- GI50 (PC-3 prostate): 1.75 µM
- TGI (PC-3 prostate): 4.28 µM
- GI50 (UACC-257 melanoma): 7.96 µM
- TGI (UACC-257 melanoma): 21.6 µM
- GI50 (NCI-H460 lung): 2.86 µM
- TGI (NCI-H460 lung): 8.91 µM
- GI50 (SK-MEL-2 melanoma): 5.29 µM
- TGI (SK-MEL-2 melanoma): 14.5 µM
- GI50 (OVCAR-8 ovarian): 1.95 µM
- TGI (OVCAR-8 ovarian): 4.12 µM
- GI50 (TK-10 renal): 2.07 µM
- TGI (TK-10 renal): 4.82 µM
- GI50 (MDA-MB-231 breast): 1.85 µM
- TGI (MDA-MB-231 breast): 4.05 µM
- GI50 (EKVX NSCLC): 6.74 µM
- TGI (EKVX NSCLC): 13.6 µM
- GI50 (SNB-75 CNS): 2.77 µM
- TGI (SNB-75 CNS): 11.2 µM
- GI50 (T-47D breast): 2.01 µM
- TGI (T-47D breast): > 21.2 µM
- GI50 (HT29 colon): 2.75 µM
- TGI (HT29 colon): > 22.1 µM
- GI50 (A498 renal): 15 µM
- TGI (A498 renal): 29.3 µM
- GI50 (UACC-62 melanoma): 5.31 µM
- TGI (UACC-62 melanoma): 9.96 µM
- GI50 (MALME-3M melanoma): 2.23 µM
- TGI (MALME-3M melanoma): 5.75 µM
- GI50 (HOP-92 NSCLC): 1.86 µM
- TGI (HOP-92 NSCLC): 4.16 µM
- GI50 (SF-295 CNS): 1.95 µM
- TGI (SF-295 CNS): 4.07 µM
- GI50 (CAKI-1 renal): 1.92 µM
- TGI (CAKI-1 renal): 3.58 µM
- GI50 (OVCAR-3 ovarian): 1.66 µM
- TGI (OVCAR-3 ovarian): 3.45 µM
- GI50 (RXF 393 renal): 2.31 µM
- TGI (RXF 393 renal): 4.72 µM
- GI50 (SF-539 CNS): 6.32 µM
- TGI (SF-539 CNS): 11.8 µM
- GI50 (NCI-H226 lung): 6.78 µM
- TGI (NCI-H226 lung): 26.7 µM
- GI50 (IGROV1 ovarian): 1.7 µM
- TGI (IGROV1 ovarian): 3.3 µM
- GI50 (DU-145 prostate): 6.15 µM
- TGI (DU-145 prostate): 11.6 µM
- GI50 (SK-MEL-5 melanoma): 4.71 µM
- TGI (SK-MEL-5 melanoma): 9.73 µM

Compound: CC(O)(P(=O)(O)O)P(=O)(O)OCC(O)CN1CCOCC1 (stereo unspecified)
- TGI (SK-MEL-28 melanoma): > 100 µM
- TGI (MOLT-4 leukemia): > 100 µM
- TGI (RPMI-8226 leukemia): > 100 µM
- TGI (NCI/ADR-RES ovarian): > 100 µM
- TGI (SK-OV-3 ovarian): > 100 µM
- TGI (HS 578T breast): > 100 µM
- TGI (MCF7 breast): > 100 µM
- TGI (CCRF-CEM leukemia): > 100 µM
- TGI (UO-31 renal): > 100 µM
- TGI (LOX IMVI melanoma): > 100 µM
- TGI (SR leukemia): > 100 µM
- TGI (A549 NSCLC): > 100 µM
- TGI (MDA-MB-435): > 100 µM
- TGI (HL-60(TB) leukemia): > 100 µM
- TGI (SF-268 CNS): > 100 µM
- TGI (NCI-H522 lung): > 100 µM
- TGI (BT-549 breast): > 100 µM
- TGI (U251 CNS): > 100 µM
- TGI (786-0 renal): > 100 µM
- TGI (HCT-15 colon): > 100 µM
- TGI (M14 melanoma): > 100 µM
- TGI (HCC-2998 colon): > 100 µM
- TGI (SW-620 colon): > 100 µM
- TGI (SNB-19 CNS): > 100 µM
- TGI (KM12 colon): > 100 µM
- TGI (HCT-116 colon): > 100 µM
- TGI (NCI-H23 lung): > 100 µM
- TGI (K-562 leukemia): > 100 µM
- TGI (COLO 205 colon): > 100 µM
- TGI (HOP-62 NSCLC): > 100 µM
- TGI (OVCAR-5 ovarian): > 100 µM
- TGI (ACHN renal): > 100 µM
- TGI (PC-3 prostate): > 100 µM
- TGI (UACC-257 melanoma): > 100 µM
- TGI (NCI-H460 lung): > 100 µM
- TGI (OVCAR-8 ovarian): > 100 µM
- TGI (TK-10 renal): > 100 µM
- TGI (MDA-MB-231 breast): > 100 µM
- TGI (EKVX NSCLC): > 100 µM
- TGI (HT29 colon): > 100 µM
- TGI (A498 renal): > 100 µM
- TGI (UACC-62 melanoma): > 100 µM
- TGI (MALME-3M melanoma): > 100 µM
- TGI (HOP-92 NSCLC): > 100 µM
- TGI (SF-295 CNS): > 100 µM
- TGI (CAKI-1 renal): > 100 µM
- TGI (MDA-N): > 100 µM
- TGI (RXF 393 renal): > 100 µM
- TGI (SF-539 CNS): > 100 µM
- TGI (NCI-H226 lung): > 100 µM
- TGI (IGROV1 ovarian): > 100 µM
- TGI (DU-145 prostate): > 100 µM

Compound: CN(CCNC(=O)c1cn(C)c2c1ccc1cc(Cl)c(Cl)cc12)CCNC(=O)c1cn(C)c2c1ccc1cc(Cl)c(Cl)cc12
- TGI (MOLT-4 leukemia): 0.36 µM
- TGI (NCI/ADR-RES ovarian): > 100 µM
- TGI (SK-OV-3 ovarian): 4.59 µM
- TGI (OVCAR-4 ovarian): 5.67 µM
- TGI (HL-60(TB) leukemia): 4.23 µM
- TGI (SF-268 CNS): 15.5 µM
- TGI (BT-549 breast): > 75.2 µM
- TGI (U251 CNS): 3.19 µM
- TGI (786-0 renal): 3.28 µM
- TGI (HCT-116 colon): 3.2 µM
- TGI (NCI-H23 lung): 22 µM
- TGI (OVCAR-5 ovarian): 9.98 µM
- TGI (ACHN renal): 3.73 µM
- TGI (PC-3 prostate): 3.26 µM
- TGI (TK-10 renal): > 100 µM
- TGI (MDA-MB-231 breast): 3.25 µM
- TGI (EKVX NSCLC): 10.9 µM
- TGI (HT29 colon): 3.41 µM
- TGI (A498 renal): 63.2 µM
- TGI (UACC-62 melanoma): 4.88 µM
- TGI (MALME-3M melanoma): 24.2 µM
- TGI (HOP-92 NSCLC): 12.1 µM
- TGI (SF-295 CNS): 6.2 µM
- TGI (CAKI-1 renal): > 100 µM
- TGI (MDA-N): 3.25 µM
- TGI (SF-539 CNS): 16 µM
- TGI (NCI-H226 lung): 96 µM
- TGI (DU-145 prostate): 3.43 µM
- TGI (SK-MEL-5 melanoma): 35.2 µM
